Results published in patent US20240082205A1, “USE OF PHTHALIDE COMPOUNDS IN TREATMENT OF MENINGIOMA” (EVERFRONT BIOTECH INC., priority 2020, published 2024).
In brackets after ≈: the same amount, converted by molar mass.

What was measured:
[1] = system: IOMM-Lee cells; test: MTT cell viability, killing meningioma cells (IOMM-Lee); format: cell-based, Human; settings: IOMM-Lee grade III malignant meningioma cells, 72 hours; for IC50: Homo sapiens, read-out: IC50 (concentration to achieve 50% lethal rate)
Source text: (§1) In the following Examples, the used materials and equipment are described as below: • 1. Human meningioma cell lines: IOMM-Lee cells (purchased from ATCC; CRL-3370;
(§2) belonging to grade III malignant meningioma cells), AMGI-0102 primary culture cells (obtained by the approval according to the human subject research of Hualien Tzu Chi Hospital (Buddhist Tzu Chi Medical Foundation); belonging to grade I benign meningioma cells). • 2. […] Medium for AMGI-0102 cells: DMEM/F12 medium (Dulbecco's Modified Eagle Medium/F12 with L-glutamine, HEPES; purchased from HyClone; product number: SH30023.02) containing 10% Fetal Bovine Serum and 1% penicillin/streptomycin. • 4. Z-butylidenephthalide (Z-BP): provided by Everfront Biotech Inc.; purity 99.8%. • 5. E-butylidenephthalide (E-BP): provided by Everfront Biotech Inc.; purity 98.01%. • 6. 2-pentanolybenzoic acid (BP-OH): provided by Everfront Biotech Inc.; purity 99.6%. • 7. Sodium^2-pentanoylbenzoate (BPONa): provided by Everfront Biotech Inc.; purity 99.7%. • 8. 5-fluorouracil (5-FU): purchased from Sigma; product number: F6627. • 9. Carmustine (BCNU): purchased from Sigma; product number: SI-00400-100MG. • 10. MTIC: purchased from Biosynth Carbosynth; product number: FM26098. • 11. MTT (Thiazolyl Blue tetrazolium bromide, 3-[4,5-dimethylthiahiazo-2-yl]-2,4-dipheny-tetrazolium bromide): purchased from ALFA Aesar™; product number: L11939-000000-16AF. • 12. ELISA reader: purchased from Thermo Fisher Scientific; model number: 22662. • 13. […]
IOMM-Lee cells and AMGI-0102 cells were independently seeded in a 96-well plate (1×10^4 cells/well), and the 96-well plate was placed under an environment of 37° C. and 5% CO2 for 24 hours. After that, the cells in the 96-well plate were subjected to the following procedures: • (a) the cells in different wells were cultured with a medium containing Z-butylidenephthalide, E-butylidenephthalide, 2-pentanolybenzoic acid, or sodium^2-pentanoylbenzoate, and the 96-well plate was placed under an environment of 37° C. and 5% CO2 for 72 hours; • (b) MTT was added into each well (the final concentration is 0.5 mg/ml), and the 96-well plate was placed under an environment of 37° C. and 5% CO2 for 1.5 hours; • (c) the medium of each well was removed, and then dimethyl sulfoxide was added (100 μl/well); and • (d) an absorbance value of each well at 595 nm was measured by an ELISA reader. […]

[2] = system: AMGI-0102 cells; test: MTT cell viability, killing meningioma cells (AMGI-0102); format: cell-based, Human; settings: AMGI-0102 grade I benign meningioma primary culture cells, 72 hours
Source text: as §1
as §2, with “MTT (Thiazolyl Blue tetrazolium bromide, 3-[4,5-dimethylthiahiazo-2-yl]-2,4-dipheny-tetrazolium bromide): purchased from ALFA Aesar™; product number: L11939-000000-16AF. • 12.” left out

[3] = system: p-ERK protein; test: Western Blotting of p-ERK protein in IOMM-Lee cells; format: cell-based, Human; settings: IOMM-Lee cells, 0, 16.8 and 33.6 μg/ml, 24 hours, FIG. 1
Source text: (§3) It is known that the activations (phosphorylation) of ERK (extracellular signal-regulated kinase) protein and JNK (c-Jun N-terminal kinase) protein in the protein kinase family are related to the proliferation of tumor cells. The aforesaid facts can be found in such as: “The ERK and JNK pathways in the regulation of metabolic reprogramming ” Oncogene. 2019; 38: 2223-2240; “ERK Inhibitor LY3214996 Targets ERK Pathway-Driven Cancers: A Therapeutic Approach Toward Precision Medicine.” Mol Cancer Ther. 2020 February; 19(2):325-336; and “The novel JNK inhibitor AS602801 inhibits cancer stem cells in vitro and in vivo.” Oncotarget. 2016 May 10; 7(19):27021-32, which are entirely incorporated hereinto by reference. Therefore, if the activations of ERK protein and JNK protein in tumor cells can be reduced, the meningioma growth will be inhibited.
(§4) IOMM-Lee cells were seeded in a 10 cm culture dish ([…]), and the dish was placed under an environment of 37° C. and 5% CO2 for 24 hours. Then, the cells in different dishes were independently cultured with a medium containing Z-butylidenephthalide at concentrations of 0, 16.8 and 33.6 μg/ml. […] Finally, the expressions of the inactivated JNK protein and ERK protein, and the activated p-JNK protein and p-ERK protein in the cells were detected by Western Blotting. […]

[4] = system: p-JNK protein; test: Western Blotting of p-JNK protein in IOMM-Lee cells; format: cell-based, Human; settings: IOMM-Lee cells, 0, 16.8 and 33.6 μg/ml, 24 hours, FIG. 1
Source text: as §3, §4

[5] = system: grade III meningioma; test: Human test: tumor size by T1-weighted MRI after wafer implantation; format: in vivo; settings: one subject with grade III meningioma; six wafers (75 mg Z-butylidenephthalide per wafer) implanted in resection cavity, plus oral temozolomide; up to 224 days after operation
Procedure: In this example, depending on the approval of the Research Ethics Committee Hualien Tzu Chi Hospital (Buddhist Tzu Chi Medical Foundation; SP109-04), meningioma patients were administered with Z-butylidenephthalide to observe the effects of the compounds of the present invention on inhibiting meningioma growth.
During the surgical operation for resecting meningioma in a subject (suffered with grade III meningioma), six wafers containing Z-butylidenephthalide (75 mg of Z-butylidenephthalide per wafer) were implanted into the cavity generated by resecting meningioma. The subject also took 150 mg/m^2 of body surface area/day (the first treatment course) or 200 mg/m^2 of body surface area/day (the second to sixth treatment course) of temozolomide via oral administration every day post-operation. […] On the other hand, the tumor size in the pictures of the subject's brain (at pre-operation, and post-operative days 1, 28, 84, 168, and 224), obtained by T1-weighted magnetic resonance imaging, was also calculated by using StealthStation S7 software (purchased from Medtronic company, US).

Compound: 2-pentanolybenzoic acid
- IC50 (concentration to achieve 50% lethal rate) [1]: 304.3 µg/mL
- IC50 (concentration to achieve 50% lethal rate) [2]: 1286.3 µg/mL

Compound: CCC/C=C1/OC(=O)c2ccccc21 [E-butylidenephthalide]
- IC50 [1]: 306 µg/mL (≈ 1630 µM)

Compound: CCC/C=C1\OC(=O)c2ccccc21 [Z-butylidenephthalide]
- expression of p-ERK protein [3]: significantly decreased
- IC50 [1]: 33.5 µg/mL (≈ 178 µM)
- expression of p-JNK protein [4]: significantly decreased
- tumor size of the subject [5]: no change in the tumor size
- IC50 ([2]; Homo sapiens, read-out: IC50 (concentration to achieve 50% lethal rate)): 94.5 µg/mL (≈ 502 µM)

Compound: CCCCC(=O)c1ccccc1C(=O)[O-].[Na+] [sodium 2-pentanoylbenzoate]
- IC50 [1]: 365 µg/mL
